Laboratory results as given in patent US6723716B1, “7-acylamino-3-heteroarylthio-3-cephem carboxylic acid antibiotics and prodrugs thereof” (Essential Therapeutics, Inc., priority 1999, dated 2004).

Assays:
S. aureus ATCC29213 = test: Human serum binding effect: MIC with and without human serum; assay type: cell-based, Staphylococcus aureus; details: 1:1 human serum:MHB
Procedure: The approximate measurement of the degree of binding of the compound to human serum proteins can be achieved by determination of the effect of the addition of human serum to the medium in which the MIC values against a selected bacterial strain is determined. The ratio of the MIC value obtained in presence of added human serum to the MIC value determined without serum addition was used as a measure of serum binding and the results of such determination are presented below in Table 2.
In addition to the standard MIC determination described above, the staphylococcal strain ATCC29213 is also tested in a ratio 1:1, human serum:MHB to obtain a preliminary estimate of the bioactivity of test compounds in serum: The assay was performed in Human Serum and Mueller-Hinton Broth (HSMHB) with a final bacterial inoculum of 1×10^6 CFU/mL (from an early-log phase culture) and a final volume of 100 μL. Control drugs, including imipenem, vancomycin, dicloxacillin, and new compounds were prepared in double-concentrated Mueller-Hinton broth at a concentration equivalent to 4-fold the desired final concentration. Dilution of compounds were prepared directly in the plates by serial 2-fold dilution in double-concentrated Mueller-Hinton using a multichannel pipette. Positive and negative growth controls were included in each plate. […] The inoculum was prepared by diluting the early log-phase (1 h) culture 1:100 with fresh double-concentrated Mueller-Hinton broth. A volume of 25 μL of the inoculum was added to each well. […] The exact inoculum was determined by applying 10 μl of 10-fold serial dilution of the bacterial suspension on TSA. After overnight incubation at 35° C., colony forming units were manually counted.

[1] = In vitro stability of compounds in rat serum; assay type: in vitro ADME
Procedure: In general, compounds from the class of 7-acylamino-3-heteroarylthio-3-cephem carboxylic acids have higher chemical reactivity and lower stability towards chemical or enzymatic decomposition than most typical cephalosporins. […] Results shown in Table 2 represent percentage loss of the initial amount of cephalosporin compound upon 60 min incubation in rat serum.
Procedure for measuring degree of degradation of cephalosporin compounds in rat serum was as follows:
Fresh control rat serum (heparinized and stored frozen) is preincubated at 37° C. for 15 min in a shaking water bath. pH is measured using test strips. 25 μL of a 2 mg/mL solution cephalosporin compound (in water) of is then added to each matrix to make 1000 μL. Solutions were incubated at 37° C. 100 ul of solution was taken out at time=0, 15, 30, and 60 min post dose and added 200 μL 4% trichloroacetic acid, vortexed, and centrifuged for 10 min at 14,000 rpm in an Eppendorf microcentrifuge. 25 μL of each supernatant was injected onto HPLC. Experiment was repeated using 25 μL of a 0.2 mg/mL cephalosporin compound. Degradation is measured as the percentage of HPLC peak area at time t relative to peak area at time 0.
HPLC conditions: Beckman Ultrasphere C18 column. 5 u. 4.6 mm×25 cm. 1 mL/min of 95% 0.1 M ammonium acetate, pH 6, 5% ACN going to 75% buffer/organic over 20 min. UV monitored at 254 and 280 nm.

human serum proteins = test: Serum binding determination by ultrafiltration/HPLC; assay type: in vitro ADME; details: by HPLC
Procedure: (§1) The more accurate measurement of binding of selected cephalosporin compounds was performed using HPLC as described below.
(§2) 1. Serum is placed in a shaking water bath preheated to 37±2° C. for 5 to 10 minutes to heat serum to 37° C. Serum pH is measured and recorded, while serum is 37° C. using pH paper. Measurements are taken twice, 3 minutes apart. If the pH is not 7.4±0.4 then the pH is adjusted by blowing 5% CO2/95% O2 over the serum. After blowing for several minutes, serum is heated to 37° C. and measurements are taken twice, 3 minutes apart using pH paper to determine the pH. Store at 4° C. The serum is stable for 7 days. Always check the pH before each use.
(§3) 2. Before any centrifugation, the centrifuge temperature must be adjusted to 25±2° C. Preheat the centrifuge by spinning for 45 minutes at the same speed to be used in the assay (1900 g) with two tubes of water in the rotor and the temperature set to 25° C. When the centrifuge stops immediately check the temperature of the tubes of water with a calibrated thermometer. The temperature of the tubes of water must be 25±2° C. […] Continue spinning and measuring the temperature and adjusting the setting until the temperature is 25±2° C.
(§4) 3. Prepare blank ultrafiltrate by pipetting blank pH 7.4 serum into an Amicon Centrifree Micropartition devices, centrifuge: fixed angle rotor, 1900 g, 25° C. for 20 minutes. Heat ultrafiltrate in a shaking water bath preheated to 37° C. Measure ultrafiltrate pH and adjust to the pH of the serum (7.4±0.2).
(§5) 4. Pipette 190 ul of blank ultrafiltrate into a set of labeled 1.7 mL polypropylene microfuge tubes for 3 of each level. Pipette 10 μL of the appropriate standard stock 50, 200, 1000 μg/mL to make standards 2.5, 10, and 50 μg/mL respectively. Vortex each tube well. One set of the standard samples are mixed 1:1 with 0.2 M acetic acid and injected onto the HPLC (MSTD). These samples are the membrane standards and will be used to compare to the other standards. Pipette 190 ul of ultrafiltrate and spike with 10 ul of whatever solution (e.g. water) the standards are prepared in to make the zero standard.
(§6) 5. Pipette 475 μL of blank heated pH 7.4 serum into a set of labeled 1.7 mL polypropylene microfuge tubes for 2 of each (Serum A and Serum B). Pipette 25 μL of the 1000 μg/mL standard stock into each tube, vortex each tube well to make serum standard 50 μg/mL. Remove 100 μL of serum and deproteinate with 200 μL 4% TCA while vortexing to make serum time 0 (serum 50, T0). Place serum tubes in a shaking water bath at 37° C. for 10 minutes. Pipet 100 μL of serum out and deproteinate with 200 μL 4% TCA, to make serum time 10 min (serum 50, T10). Pipet 200 ul serum standard 50 μg/mL into an ultrafiltration device, which is not treated with TCA, to determine free drug in samples (Rat Serum 50).
(§7) 6. Transfer serum and standard samples to labeled Amicon Centrifree Micropartition filters, and centrifuge: 1900 g, 25° C. for 10 minutes. The extracted serum samples (T0 and T10) are spun down and supernatant is loaded into HPLC vials.
(§8) 7. 100 μL of ultrafiltrate sample and 100 μL of 0.2 M acetic acid were mixed together to stabilize the compound in ultrafiltrate.
(§9) 8. Transfer entire stabilized ultrafiltrate solution to a labeled autoinjector HPLC vial cap with Teflon septa, and inject on HPLC.
(§10) Peak height or area is used in a weighted linear regression.

rhesus serum proteins = test: as above; assay type: in vitro ADME; details: by HPLC
Procedure: as §1, §2, §3, §4, §5, §6, §7, §8, §9, §10

rat serum proteins = test: as above; assay type: in vitro ADME; details: by HPLC
Procedure: as §1, §2, §3, §4, §5, §6, §7, §8, §9, §10

[2] = test system: S. aureus ATCC 13709 (Smith diffuse); test: Murine lethal bacteremic peritonitis (septicemia) efficacy; assay type: in vivo, mice
Procedure: 10 mice/group were injected intraperitoneally with 2.98×10^7 cfu S. aureus ATCC 13709 (Smith diffuse) and treated at 0 and 2 hrs post-challenge with serial two-fold doses of new cephalosporin antibiotic, imipenem and vancomycin subcutaneously in order to determine the ED50. Male Swiss-Webster mice weighing originally 24.2-26.1 g were obtained from Charles Rivers Labs, Hollister, Calif. Mice were housed 10 per cage and given free access to water and mouse chow.
Staphylococcus aureus ATCC 13709 (Smith diffuse) was grown overnight at 37° C. in Brain-heart Infusion broth (BHIB). The following morning, it was subcultured to fresh BHIB and incubated for 4-5 h at 37° C. The log-phase growth cells were washed once with physiological saline and adjusted to the desired concentration by correlation of absorbency at OD 600 nm with predetermined plate counts (NCCLS, 1994). The cell suspension was mixed with an equal volume of sterile 14% hog-gastric mucin (2). Inoculum was kept in an ice bath until used (<1 h).
Mice were challenged via an injection of 0.5 mL bacterial suspension intraperitoneally. The bacterial challenge was 2.98×10^7 cfu/mouse.
Imipenem (Primaxin IV; Lot 7294A), vancomycin (Vancocin; Lot 8MU60W), and new cephalosporin antibiotic were prepared by serial two-fold dilutions to concentrations of 0.078-0.005 mg/mL, 1.2-0.075 mg/mL, 0.3-0.02 mg/mL, 0.3-0.02 mg/mL and 0.3-0.02 mg/mL respectively in sterile water (1). All antibiotics were administered subcutaneously in 0.1 mL volumes at 0 and 2 hours post-challenge. Concentrations of all compounds are based on the weight of the bioactive ingredients.
The 50% effective dose (ED50) was calculated by the probit method (3) utilizing a program entitled Probit (Nycomed-Salutar).

[3] = Staphylococcus aureus, ATCC13709, sc, read-out: Efficacy in murine septicemia % survival

Compound	Human serum binding effect (ratio of MIC value determined with and without human serum added) (S. aureus ATCC29213)	stability of compounds in rat serum ([1]; Table 2 data)	Stability in rat serum (% loss) ([1]; after 60 min exposure to rat serum, 37° C., HPLC) [%]	Serum Binding human (% of compound bound to serum) (human serum proteins) [%]	Serum Binding rhesus (% of compound bound to serum) (rhesus serum proteins) [%]	Serum Binding rat (% of compound bound to serum) (rat serum proteins) [%]	responders at 0.625 mg/kg [2, 3] [%]	responders at 1.25 mg/kg [2, 3] [%]	responders at 2.5 mg/kg [2, 3] [%]	Efficacy in murine septicemia % survival ([2]; dose 5 mg/kg s.c. at 0 and 2 h post-challenge)
N=C(N)NCCSCc1ncccc1SC1=C(C(=O)O)N2C(=O)[C@@H](NC(=O)/C(=N\O)c3nc(N)sc3Cl)[C@H]2SC1 [Cmpd 15, (7R)-7-[(Z)-2-(2-amino-5-chlorothiazol-4-yl)-2-(hydroxyimino)acetamido]-3-[2-(2-guanidinoethylthiomethyl)pyrid-3-ylthio]-3-cephem-4-carboxylic acid]	2	improved stability	38	83	88	76				
CN[C@H](CC(C)C)C(=O)N[C@H]1C(=O)N[C@@H](CC(N)=O)C(=O)N[C@H]2C(=O)N[C@H]3C(=O)N[C@H](C(=O)N[C@H](C(=O)O)c4cc(O)cc(O)c4-c4cc3ccc4O)[C@H](O)c3ccc(c(Cl)c3)Oc3cc2cc(c3O[C@@H]2O[C@H](CO)[C@@H](O)[C@H](O)[C@H]2O[C@H]2C[C@](C)(N)[C@H](O)[C@H](C)O2)Oc2ccc(cc2Cl)[C@H]1O [Van., Vancomycin, reference compound]	2			55			10	20	60	5/100%
